Data reported in ChEMBL document CHEMBL1156106 (J Med Chem, 2009).

Columns and labels:
[1] = system: Rattus norvegicus; test: Effect on behavioural activity in ip dosed rat assessed as cocaine-induced lever response pretreated with cocaine by drug-discrimination studies; format: functional
[2] = system: Rattus norvegicus; test: Effect on behavioural activity in rat assessed as cocaine-induced lever response at 2.5 mg/kg, po pretreated with cocaine for 45 mins by drug-discrimination studies; format: functional
[3] = system: Rattus norvegicus; test: Effect on behavioural activity in rat assessed as cocaine-induced lever response at 2.5 mg/kg, po pretreated with cocaine for 90 mins by drug-discrimination studies; format: functional
[4] = system: Rattus norvegicus; test: Effect on behavioural activity in rat assessed as cocaine-induced lever response at 2.5 mg/kg, po pretreated with cocaine for 180 mins by drug-discrimination studies; format: functional
[5] = system: Rattus norvegicus; test: Effect on behavioural activity in rat assessed as cocaine-induced lever response at 2.5 mg/kg, po pretreated with cocaine for 360 mins by drug-discrimination studies; format: functional
[6] = system: Rattus norvegicus; test: Effect on behavioural activity in rat assessed as cocaine-induced lever response at 5 mg/kg, po pretreated with cocaine for 45 mins by drug-discrimination studies; format: functional
[7] = system: Rattus norvegicus; test: Effect on behavioural activity in rat assessed as cocaine-induced lever response at 5 mg/kg, po pretreated with cocaine for 90 mins by drug-discrimination studies; format: functional
[8] = system: Rattus norvegicus; test: Effect on behavioural activity in rat assessed as cocaine-induced lever response at 5 mg/kg, po pretreated with cocaine for 180 mins by drug-discrimination studies; format: functional
[9] = system: Rattus norvegicus; test: Effect on behavioural activity in rat assessed as cocaine-induced lever response at 5 mg/kg, po pretreated with cocaine for 360 mins by drug-discrimination studies; format: functional
[10] = system: Rattus norvegicus; test: Effect on behavioural activity in rat assessed as cocaine-induced lever response at 10 mg/kg, po pretreated with cocaine for 45 mins by drug-discrimination studies; format: functional
[11] = system: Rattus norvegicus; test: Effect on behavioural activity in rat assessed as cocaine-induced lever response at 10 mg/kg, po pretreated with cocaine for 90 mins by drug-discrimination studies; format: functional
[12] = system: Rattus norvegicus; test: Effect on behavioural activity in rat assessed as cocaine-induced lever response at 10 mg/kg, po pretreated with cocaine for 360 mins by drug-discrimination studies; format: functional
[13] = target: Sodium-dependent serotonin transporter (Homo sapiens, UniProt P31645); test: biochemical; format: cell-based, HEK293
Chain of Sodium-dependent serotonin transporter (P31645 whole entry): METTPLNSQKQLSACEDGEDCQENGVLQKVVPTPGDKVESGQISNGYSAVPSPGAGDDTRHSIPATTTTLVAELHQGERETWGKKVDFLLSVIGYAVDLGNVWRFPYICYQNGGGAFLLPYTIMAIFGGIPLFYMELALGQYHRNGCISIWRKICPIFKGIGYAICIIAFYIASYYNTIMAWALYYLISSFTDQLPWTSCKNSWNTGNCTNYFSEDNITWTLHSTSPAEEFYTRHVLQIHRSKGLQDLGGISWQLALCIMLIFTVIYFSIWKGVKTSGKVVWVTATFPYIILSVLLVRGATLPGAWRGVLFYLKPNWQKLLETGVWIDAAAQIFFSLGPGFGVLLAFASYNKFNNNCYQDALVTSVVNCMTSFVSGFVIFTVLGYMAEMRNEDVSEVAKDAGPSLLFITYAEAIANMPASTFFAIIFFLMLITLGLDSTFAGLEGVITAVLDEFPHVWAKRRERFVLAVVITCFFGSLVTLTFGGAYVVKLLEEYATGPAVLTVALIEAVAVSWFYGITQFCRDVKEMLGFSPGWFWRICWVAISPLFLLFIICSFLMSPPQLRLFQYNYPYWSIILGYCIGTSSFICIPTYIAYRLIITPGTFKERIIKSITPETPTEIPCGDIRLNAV

[14] = system: Mus musculus; test: Antidepressant activity in ip dosed mouse assessed as stimulation of locomotor activity; format: functional
[15] = system: Mus musculus; test: Antidepressant activity in ip dosed mouse assessed as stimulation of locomotor activity relative to cocaine; format: functional
[16] = system: Mus musculus; test: Antidepressant activity in ip dosed mouse assessed as time to reach peak stimulation of locomotor activity; format: functional
[17] = system: Mus musculus; test: Antidepressant activity in ip dosed mouse assessed as duration of locomotor activity; format: functional
[18] = system: Rattus norvegicus; test: Effect on behavioural activity in rat assessed as cocaine-induced lever response at 2.5 mg/kg, ip pretreated with cocaine for 15 mins by drug-discrimination studies; format: functional; details: route intraperitoneal
[19] = system: Rattus norvegicus; test: Effect on behavioural activity in rat assessed as cocaine-induced lever response at 5 mg/kg, ip pretreated with cocaine for 15 mins by drug-discrimination studies; format: functional; details: route intraperitoneal
[20] = system: Rattus norvegicus; test: Effect on behavioural activity in rat assessed as cocaine-induced lever response at 10 mg/kg, ip pretreated with cocaine for 15 mins by drug-discrimination studies; format: functional; details: route intraperitoneal
[21] = system: Rattus norvegicus; test: Effect on behavioural activity in rat assessed as cocaine-induced lever response at 25 mg/kg, ip pretreated with cocaine for 15 mins by drug-discrimination studies; format: functional; details: route intraperitoneal
[22] = system: Rattus norvegicus; test: Effect on behavioural activity in po dosed rat assessed as cocaine-induced lever response pretreated with cocaine by drug-discrimination studies; format: functional
[23] = system: Rattus norvegicus; test: Effect on behavioural activity in rat assessed as cocaine-induced lever response at 20 mg/kg, po pretreated with cocaine for 45 mins by drug-discrimination studies; format: functional
[24] = system: Rattus norvegicus; test: Effect on behavioural activity in rat assessed as cocaine-induced lever response at 20 mg/kg, po pretreated with cocaine for 90 mins by drug-discrimination studies; format: functional
[25] = system: Rattus norvegicus; test: Effect on behavioural activity in rat assessed as cocaine-induced lever response at 20 mg/kg, po pretreated with cocaine for 180 mins by drug-discrimination studies; format: functional
[26] = system: Rattus norvegicus; test: Effect on behavioural activity in rat assessed as cocaine-induced lever response at 20 mg/kg, po pretreated with cocaine for 360 mins by drug-discrimination studies; format: functional
[27] = system: Rattus norvegicus; test: Effect on behavioural activity in rat assessed as cocaine-induced lever response at 40 mg/kg, po pretreated with cocaine for 45 mins by drug-discrimination studies; format: functional
[28] = system: Rattus norvegicus; test: Effect on behavioural activity in rat assessed as cocaine-induced lever response at 40 mg/kg, po pretreated with cocaine for 90 mins by drug-discrimination studies; format: functional
[29] = system: Rattus norvegicus; test: Effect on behavioural activity in rat assessed as cocaine-induced lever response at 40 mg/kg, po pretreated with cocaine for 180 mins by drug-discrimination studies; format: functional
[30] = system: Rattus norvegicus; test: Effect on behavioural activity in rat assessed as cocaine-induced lever response at 40 mg/kg, po pretreated with cocaine for 360 mins by drug-discrimination studies; format: functional
[31] = system: Rattus norvegicus; test: Effect on behavioural activity in rat assessed as cocaine-induced lever response at 80 mg/kg, po pretreated with cocaine for 45 mins by drug-discrimination studies; format: functional
[32] = system: Rattus norvegicus; test: Effect on behavioural activity in rat assessed as cocaine-induced lever response at 80 mg/kg, po pretreated with cocaine for 90 mins by drug-discrimination studies; format: functional
[33] = system: Rattus norvegicus; test: Effect on behavioural activity in rat assessed as cocaine-induced lever response at 80 mg/kg, po pretreated with cocaine for 180 mins by drug-discrimination studies; format: functional
[34] = system: Rattus norvegicus; test: Effect on behavioural activity in rat assessed as cocaine-induced lever response at 80 mg/kg, po pretreated with cocaine for 360 mins by drug-discrimination studies; format: functional
[35] = system: Rattus norvegicus; test: Effect on behavioural activity in rat assessed as cocaine-induced lever response at 0.5 mg/kg, ip pretreated with cocaine for 15 mins by drug-discrimination studies; format: functional; details: route intraperitoneal
[36] = system: Rattus norvegicus; test: Effect on behavioural activity in rat assessed as cocaine-induced lever response at 0.1 mg/kg, ip pretreated with cocaine for 15 mins by drug-discrimination studies; format: functional; details: route intraperitoneal
[37] = system: Rattus norvegicus; test: Effect on behavioural activity in rat assessed as cocaine-induced lever response at 0.25 mg/kg, ip pretreated with cocaine for 15 mins by drug-discrimination studies; format: functional; details: route intraperitoneal
[38] = system: Rattus norvegicus; test: Effect on behavioural activity in rat assessed as cocaine-induced lever response at 10 mg/kg, po pretreated with cocaine for 180 mins by drug-discrimination studies; format: functional
[39] = system: Rattus norvegicus; test: Effect on behavioural activity in rat assessed as cocaine-induced lever response at 25 mg/kg, po pretreated with cocaine for 45 mins by drug-discrimination studies; format: functional
[40] = system: Rattus norvegicus; test: Effect on behavioural activity in rat assessed as cocaine-induced lever response at 25 mg/kg, po pretreated with cocaine for 90 mins by drug-discrimination studies; format: functional
[41] = system: Rattus norvegicus; test: Effect on behavioural activity in rat assessed as cocaine-induced lever response at 25 mg/kg, po pretreated with cocaine for 180 mins by drug-discrimination studies; format: functional
[42] = system: Rattus norvegicus; test: Effect on behavioural activity in rat assessed as cocaine-induced lever response at 25 mg/kg, po pretreated with cocaine for 360 mins by drug-discrimination studies; format: functional
[43] = system: Rattus norvegicus; test: Effect on behavioural activity in rat assessed as cocaine-induced lever response at 1 mg/kg, ip pretreated with cocaine for 15 mins by drug-discrimination studies; format: functional; details: route intraperitoneal
[44] = system: Rattus norvegicus; test: Effect on behavioural activity in rat assessed as cocaine-induced lever response at 0.25 mg/kg, po pretreated with cocaine for 45 mins by drug-discrimination studies; format: functional
[45] = system: Rattus norvegicus; test: Effect on behavioural activity in rat assessed as cocaine-induced lever response at 0.25 mg/kg, po pretreated with cocaine for 90 mins by drug-discrimination studies; format: functional
[46] = system: Rattus norvegicus; test: Effect on behavioural activity in rat assessed as cocaine-induced lever response at 0.25 mg/kg, po pretreated with cocaine for 180 mins by drug-discrimination studies; format: functional
[47] = system: Rattus norvegicus; test: Effect on behavioural activity in rat assessed as cocaine-induced lever response at 0.25 mg/kg, po pretreated with cocaine for 360 mins by drug-discrimination studies; format: functional
[48] = system: Rattus norvegicus; test: Effect on behavioural activity in rat assessed as cocaine-induced lever response at 0.5 mg/kg, po pretreated with cocaine for 45 mins by drug-discrimination studies; format: functional
[49] = system: Rattus norvegicus; test: Effect on behavioural activity in rat assessed as cocaine-induced lever response at 0.5 mg/kg, po pretreated with cocaine for 90 mins by drug-discrimination studies; format: functional
[50] = system: Rattus norvegicus; test: Effect on behavioural activity in rat assessed as cocaine-induced lever response at 0.5 mg/kg, po pretreated with cocaine for 180 mins by drug-discrimination studies; format: functional
[51] = system: Rattus norvegicus; test: Effect on behavioural activity in rat assessed as cocaine-induced lever response at 0.5 mg/kg, po pretreated with cocaine for 360 mins by drug-discrimination studies; format: functional
[52] = system: Rattus norvegicus; test: Effect on behavioural activity in rat assessed as cocaine-induced lever response at 1 mg/kg, po pretreated with cocaine for 41 mins by drug-discrimination studies; format: functional
[53] = system: Rattus norvegicus; test: Effect on behavioural activity in rat assessed as cocaine-induced lever response at 1 mg/kg, po pretreated with cocaine for 90 mins by drug-discrimination studies; format: functional
[54] = system: Rattus norvegicus; test: Effect on behavioural activity in rat assessed as cocaine-induced lever response at 1 mg/kg, po pretreated with cocaine for 180 mins by drug-discrimination studies; format: functional
[55] = system: Rattus norvegicus; test: Effect on behavioural activity in rat assessed as cocaine-induced lever response at 1 mg/kg, po pretreated with cocaine for 360 mins by drug-discrimination studies; format: functional

In the case of `CCCC(NC(C)(C)C)C(=O)c1cccc(Cl)c1` (stereo not given), the ED50 [1] is reported as 7.8 mg/kg, the Activity [2] is reported as 0% and the Activity [3] is reported as 0%. For the same compound, the Activity [4] was 0%, the Activity [5] was 0% and the Activity [6] was 17%. The Activity [7] was 0%, the Activity [8] was 22% and the Activity [9] was 0%. The Activity [10] was 33%, the Activity [11] was 0% and the Activity [12] was 0%. The Ki [13] was greater than 10 µM, the ED50 [14] was 15.5 mg/kg and the Activity [15] was 108%. The “Time to peak locomotor stimulation” value [16] was 90 min, the Time [17] was 210 min and the Activity [18] was 0.2%. For the same compound, the Activity [19] was 17.2%, the Activity [20] was 33.3% and the Activity [21] was 83.3%. The ED50 [22] was 23.2 mg/kg, the Activity [23] was 33% and the Activity [24] was 33%. For the same compound, the Activity [25] was 0%, the Activity [26] was 0% and the Activity [27] was 50%. For the same compound, the Activity [28] was 17%, the Activity [29] was 17% and the Activity [30] was 16%. For the same compound, the Activity [31] was 100%, the Activity [32] was 100% and the Activity [33] was 50%. It also gave an Activity [34] of 1%.
`CC(NC1CC1)C(=O)c1cccc(Cl)c1` (stereo not given) gave an Activity [35] of 63%, an Activity [36] of 9% and an Activity [37] of 24%. It also gave an Activity [2] of 34%, an Activity [3] of 0% and an Activity [4] of 34%. For the same compound, the Activity [5] was 0%, the Activity [6] was 34% and the Activity [7] was 0%. For the same compound, the Activity [8] was 0%, the Activity [9] was 0% and the Activity [10] was 74%. It also gave an Activity [11] of 33%, an Activity [38] of 33% and an Activity [12] of 0%. It also gave an Activity [39] of 67%, an Activity [40] of 83% and an Activity [41] of 99%. It also gave an Activity [42] of 0%, an ED50 [14] of 16.6 mg/kg and an Activity [15] of 82%. For the same compound, the “Time to peak locomotor stimulation” value [16] was 0 min, the Time [17] was 350 min and the Activity [43] was 21.5%. It also gave an Activity [18] of 39.5%, an Activity [19] of 67.2% and an Activity [20] of 66.7%. For the same compound, the Activity [21] was 66.3%, the ED50 [22] was 12.8 mg/kg and the Activity [44] was 0%. For the same compound, the Activity [45] was 0%, the Activity [46] was 0% and the Activity [47] was 34%. It also gave an Activity [48] of 1%, an Activity [49] of 16% and an Activity [50] of 0%. The Activity [51] was 2%, the Activity [52] was 0% and the Activity [53] was 0%. It also gave an Activity [54] of 0% and an Activity [55] of 0%.
